Source: US20100222269A1, “IMPROVED DERIVATIVES OF AMYLIN” (priority 2007, published 2010)
Read-outs that look alike come from different tables or passages of the source. Starred links: 1 amine or outer side, 2 acyl side, 3 side chain; linkers in the order of their positions; H or OH if unused. Positions of bridges follow the written chain, without caps; N, C: chain ends. Residues, ends and D or L forms follow the SMILES beside them. Groups on a side chain read outwards from the residue. *: point of attachment. C20 diacid = O=C(O)CCCCCCCCCCCCCCCCCCC(=O)*; C18 diacid = O=C(O)CCCCCCCCCCCCCCCCC(=O)*; γGlu = O=C(O)[C@H](CCC(=O)[*:2])N[*:1]; AEEA = NCCOCCOCC(=O)O

Target: T1, Amylin 3(a) receptor (human calcitonin receptor (CTa) with RAMP-3) (Homo sapiens, UniProt O60896+P30988)
T1 construct: expressed in transfected cells; host or cells: BHK570 (baby hamster kidney) cells, stably transfected, with CRE-luciferase reporter
T1 sequence (O60896 24-148): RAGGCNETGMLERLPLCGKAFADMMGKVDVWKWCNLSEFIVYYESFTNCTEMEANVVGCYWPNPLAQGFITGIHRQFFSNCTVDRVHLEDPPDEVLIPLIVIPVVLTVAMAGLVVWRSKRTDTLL
T1 sequence (P30988 25-474): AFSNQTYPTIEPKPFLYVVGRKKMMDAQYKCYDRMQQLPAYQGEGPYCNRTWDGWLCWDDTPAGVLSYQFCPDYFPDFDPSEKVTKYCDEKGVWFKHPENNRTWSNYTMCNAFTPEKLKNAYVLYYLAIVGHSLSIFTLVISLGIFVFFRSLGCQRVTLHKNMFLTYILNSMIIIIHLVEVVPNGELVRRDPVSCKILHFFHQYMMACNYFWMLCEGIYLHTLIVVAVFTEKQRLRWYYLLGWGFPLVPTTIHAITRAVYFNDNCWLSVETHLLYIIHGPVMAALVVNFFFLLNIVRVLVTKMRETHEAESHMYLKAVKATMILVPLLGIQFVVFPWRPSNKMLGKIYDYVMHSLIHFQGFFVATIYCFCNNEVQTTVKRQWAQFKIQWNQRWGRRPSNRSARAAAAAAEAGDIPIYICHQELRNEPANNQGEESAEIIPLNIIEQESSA
Test: Amylin luciferase assay (CRE-luciferase reporter in BHK Amylin 3(a)//CRE-luc cells)
Assay type: cell-based
From the text: It has previously been published (Poyner D R et al 2002, Pharmacological Reviews 54(2) 233-246) that activation of Amylin receptors (coexpression of Calcitonin receptor and receptor activity modifying peptides RAMPs) by Amylin leads to an increase in the intracellular concentration of cAMP. Consequently, transcription is activated at promotors containing multiple copies of the cAMP response element (CRE). It is thus possible to measure Amylin activity by use of a CRE luciferase reporter gene introduced into BHK cells also expressing an Amylin receptor.
2. Construction of an Amylin 3(a)/CRE-luc Cell Line
A BHK570 cell line stably transfected with the human calcitonin receptor (CTa) and a CRE-responsive luciferase reportergene. The cell line was further transfected with RAMP-3, using standard methods. This turns the Calcitonin receptor into an Amylin 3(a) receptor. Methotrexate, Neomycin, and Hygromycin are selection markers for luciferase, the Calcitonin receptor, and RAMP-3, respectively.
3. Amylin Luciferase Assay
To perform activity assays, BHK Amylin 3(a)//CRE-luc cells were seeded in white 96 well culture plates at a density of about 20.000 cells/well. The cells were in 100 μl growth medium (DMEM with 10% FBS, 1% Pen/Strep, 1 mM Na-pyruvate, 250 nM Methotrexate, 500 μg/ml Neomycin, and 400 μg/ml Hygromycin). After incubation overnight at 37° C. and 5% CO2, the growth medium was replaced by 50 μl/well assay medium (DMEM (without phenol red), Glumamax™, 10% FBS, and 10 mM Hepes, pH 7,4). Further, 50 μl/well of standard or sample in assay buffer were added. After 4 hours incubation at 37° C. and 5% CO2, the assay medium with standard or sample were removed and replaced by 100 μl/well PBS. Further, 100 μl/well LucLite™ was added. The plates were sealed and incubated at room temperature for 30 minutes. Finally, luminescence was measured on a TopCounter (Packard) in SPC (single photon counting) mode.

[1] = BHK570 cells with human calcitonin receptor (CTa), RAMP-3 and CRE-luciferase reporter, 4 hours incubation, read-out: Potency luciferase assay

With `CC[C@H](C)[C@H](NC(=O)[C@@H]1CCCN1C(=O)CNC(=O)[C@H](Cc1ccccc1)NC(=O)[C@H](CC(N)=O)NC(=O)[C@H](CC(N)=O)NC(=O)[C@H](CO)NC(=O)[C@H](CO)NC(=O)[C@H](Cc1c[nH]cn1)NC(=O)[C@@H](NC(=O)[C@H](CC(C)C)NC(=O)[C@H](Cc1ccccc1)NC(=O)[C@H](CC(N)=O)NC(=O)[C@H](C)NC(=O)[C@H](CC(C)C)NC(=O)[C@H](CCCNC(=N)N)NC(=O)[C@H](CCC(N)=O)NC(=O)[C@@H](NC(=O)[C@H](C)NC(=O)[C@@H]1CSSC[C@H](NC(=O)[C@H](CCCNC(=N)N)NC(=O)[C@H](CCC(=O)O)NC(=O)CCCCCCCCCCCCCCCCCCC(=O)O)C(=O)N[C@@H](CC(N)=O)C(=O)N[C@@H]([C@@H](C)O)C(=O)N[C@@H](C)C(=O)N[C@@H]([C@@H](C)O)C(=O)N1)[C@@H](C)O)C(C)C)C(=O)N[C@@H](CC(C)C)C(=O)N1CCC[C@H]1C(=O)N1CCC[C@H]1C(=O)N[C@H](C(=O)N[C@@H](CC(N)=O)C(=O)N[C@H](C(=O)NCC(=O)N[C@@H](CO)C(=O)N[C@@H](CC(N)=O)C(=O)N[C@H](C(=O)N[C@@H](Cc1ccc(O)cc1)C(N)=O)[C@@H](C)O)C(C)C)[C@@H](C)O` [Example 46, N-alpha-(19-carboxynonadecanoyl)-Glu-[Arg1]-pramlintide (1-37)] ({C20 diacid}-ERCNTATCATQRLANFLVHSSNNFGPILPPTNVGSNTY-NH2; disulfide 3-8; C-terminus assumed) the EC50 [1] was 0.1 nM.

Molecule `CC[C@H](C)[C@H](NC(=O)[C@@H]1CCCN1C(=O)CNC(=O)[C@H](Cc1ccccc1)NC(=O)[C@H](CC(N)=O)NC(=O)[C@H](CC(N)=O)NC(=O)[C@H](CO)NC(=O)[C@H](CO)NC(=O)[C@H](Cc1c[nH]cn1)NC(=O)[C@@H](NC(=O)[C@H](CC(C)C)NC(=O)[C@H](Cc1ccccc1)NC(=O)[C@H](CC(N)=O)NC(=O)[C@H](C)NC(=O)[C@H](CC(C)C)NC(=O)[C@H](CCCNC(=N)N)NC(=O)[C@H](CCC(N)=O)NC(=O)[C@@H](NC(=O)[C@H](C)NC(=O)[C@@H]1CSSC[C@H](NC(=O)[C@@H](N)CCCCN)C(=O)N[C@@H](CCCCNC(=O)COCCOCCNC(=O)COCCOCCNC(=O)CC[C@H](NC(=O)CCCCCCCCCCCCCCCCC(=O)O)C(=O)O)C(=O)N[C@@H]([C@@H](C)O)C(=O)N[C@@H](C)C(=O)N[C@@H]([C@@H](C)O)C(=O)N1)[C@@H](C)O)C(C)C)C(=O)N[C@@H](CC(C)C)C(=O)N1CCC[C@H]1C(=O)N1CCC[C@H]1C(=O)N[C@H](C(=O)N[C@@H](CC(N)=O)C(=O)N[C@H](C(=O)NCC(=O)N[C@@H](CO)C(=O)N[C@@H](CC(N)=O)C(=O)N[C@H](C(=O)N[C@@H](Cc1ccc(O)cc1)C(N)=O)[C@@H](C)O)C(C)C)[C@@H](C)O` [Example 11, N-epsilon3-[2-(2-{2-[2-(2-{2-[(S)-4-carboxy-4-(17-carboxyheptadecanoylamino)butyrylamino]ethoxy}ethoxy)acetylamino]ethoxy}ethoxy)acetyl]-[Lys3]-pramlintide (1-37)] (H-KCK([AEEA-AEEA-γGlu-C18 diacid])TATCATQRLANFLVHSSNNFGPILPPTNVGSNTY-NH2; disulfide 2-7; N-terminus assumed) has an EC50 of 0.2 nM.

Molecule `CC[C@H](C)[C@H](NC(=O)[C@H](CCCCNC(=O)COCCOCCNC(=O)COCCOCCNC(=O)CC[C@H](NC(=O)CC[C@H](NC(=O)CC[C@H](NC(=O)CC[C@H](NC(=O)CCCCCCCCCCCCCCCCC(=O)O)C(=O)O)C(=O)O)C(=O)O)C(=O)O)NC(=O)CNC(=O)[C@H](Cc1ccccc1)NC(=O)[C@H](CC(N)=O)NC(=O)[C@H](CC(N)=O)NC(=O)[C@H](CO)NC(=O)[C@H](CO)NC(=O)[C@H](Cc1c[nH]cn1)NC(=O)[C@@H](NC(=O)[C@H](CC(C)C)NC(=O)[C@H](Cc1ccccc1)NC(=O)[C@H](CC(N)=O)NC(=O)[C@H](C)NC(=O)[C@H](CC(C)C)NC(=O)[C@H](CCCNC(=N)N)NC(=O)[C@H](CCC(N)=O)NC(=O)[C@@H](NC(=O)[C@H](C)NC(=O)[C@@H]1CSSC[C@H](NC(=O)[C@@H](N)CCCCN)C(=O)N[C@@H](CC(N)=O)C(=O)N[C@@H]([C@@H](C)O)C(=O)N[C@@H](C)C(=O)N[C@@H]([C@@H](C)O)C(=O)N1)[C@@H](C)O)C(C)C)C(=O)N[C@@H](CC(C)C)C(=O)N1CCC[C@H]1C(=O)N1CCC[C@H]1C(=O)N[C@H](C(=O)N[C@@H](CC(N)=O)C(=O)N[C@H](C(=O)NCC(=O)N[C@@H](CO)C(=O)N[C@@H](CC(N)=O)C(=O)N[C@H](C(=O)N[C@@H](Cc1ccc(O)cc1)C(N)=O)[C@@H](C)O)C(C)C)[C@@H](C)O` [Example 26, N-epsilon25-[2-(2-{2-[2-(2-{2-[(S)-4-carboxy-4-((S)-4-carboxy-4-{(S)-4-carboxy-4-[(S)-4-carboxy-4-(17-carboxyheptadecanoylamino)butyrylamino]butyrylamino}butyrylamino)butyrylamino]ethoxy}ethoxy)acetylamino]ethoxy}ethoxy)acetyl]-[Lys25]-pramlintide (1-37)] (H-KCNTATCATQRLANFLVHSSNNFGK([AEEA-AEEA-γGlu-γGlu-γGlu-γGlu-C18 diacid])ILPPTNVGSNTY-NH2; disulfide 2-7; N-terminus and C-terminus assumed) has an EC50 [1] of 0.3 nM.

Molecule `CC[C@H](C)[C@H](NC(=O)[C@@H]1CCCN1C(=O)CNC(=O)[C@H](Cc1ccccc1)NC(=O)[C@H](CC(N)=O)NC(=O)[C@H](CC(N)=O)NC(=O)[C@H](CO)NC(=O)[C@H](CO)NC(=O)[C@H](Cc1c[nH]cn1)NC(=O)[C@@H](NC(=O)[C@H](CC(C)C)NC(=O)[C@H](Cc1ccccc1)NC(=O)[C@H](CC(N)=O)NC(=O)[C@H](C)NC(=O)[C@H](CC(C)C)NC(=O)[C@H](CCCNC(=N)N)NC(=O)[C@H](CCC(N)=O)NC(=O)[C@@H](NC(=O)[C@H](C)NC(=O)[C@@H]1CSSC[C@H](NC(=O)[C@@H](N)CCCCN)C(=O)N[C@@H](CCCCNC(=O)COCCOCCNC(=O)COCCOCCNC(=O)CC[C@H](NC(=O)CCCCCCCCCCCCCCCCCCC(=O)O)C(=O)O)C(=O)N[C@@H]([C@@H](C)O)C(=O)N[C@@H](C)C(=O)N[C@@H]([C@@H](C)O)C(=O)N1)[C@@H](C)O)C(C)C)C(=O)N[C@@H](CC(C)C)C(=O)N1CCC[C@H]1C(=O)N1CCC[C@H]1C(=O)N[C@H](C(=O)N[C@@H](CC(N)=O)C(=O)N[C@H](C(=O)NCC(=O)N[C@@H](CO)C(=O)N[C@@H](CC(N)=O)C(=O)N[C@H](C(=O)N[C@@H](Cc1ccc(O)cc1)C(N)=O)[C@@H](C)O)C(C)C)[C@@H](C)O` [Example 12, N-epsilon3-[2-(2-{2-[2-(2-{2[(S)-4-carboxy-4-(19-carboxynonadecanoylamino)butyrylamino]ethoxy}ethoxy)acetylamino]ethoxy}ethoxy)acetyl]-[Lys3]-pramlintide (1-37)] (H-KCK([AEEA-AEEA-γGlu-C20 diacid])TATCATQRLANFLVHSSNNFGPILPPTNVGSNTY-NH2; disulfide 2-7; N-terminus and C-terminus assumed) has an EC50 [1] of 0.3 nM.
